Laboratory results from ChEMBL document CHEMBL4325871 (Eur J Med Chem, 2019).

Legend:
[1] = target: Tyrosine-protein kinase receptor UFO (Homo sapiens) (UniProt P30530); assay: Inhibition of human AXL assessed as residual activity at 1 uM using EAIYAAPFAKKK as substrate by [gamma-33P]-ATP assay relative to control
[2] = target: Serine/threonine-protein kinase 24 (Homo sapiens) (UniProt Q9Y6E0); assay: Inhibition of human MST3 assessed as residual activity at 1 uM using MBP as substrate by [gamma-33P]-ATP assay relative to control
[3] = target: Citron Rho-interacting kinase (Homo sapiens) (UniProt O14578); assay: Inhibition of human STK21 assessed as residual activity at 1 uM using MBP as substrate by [gamma-33P]-ATP assay relative to control
[4] = target: Aurora kinase C (Homo sapiens) (UniProt Q9UQB9); assay: Inhibition of human Aurora C assessed as residual activity at 1 uM using [H-LRRASLG] as substrate by [gamma-33P]-ATP assay relative to control
Aurora kinase C (Homo sapiens), sequence (Q9UQB9 whole entry, canonical isoform): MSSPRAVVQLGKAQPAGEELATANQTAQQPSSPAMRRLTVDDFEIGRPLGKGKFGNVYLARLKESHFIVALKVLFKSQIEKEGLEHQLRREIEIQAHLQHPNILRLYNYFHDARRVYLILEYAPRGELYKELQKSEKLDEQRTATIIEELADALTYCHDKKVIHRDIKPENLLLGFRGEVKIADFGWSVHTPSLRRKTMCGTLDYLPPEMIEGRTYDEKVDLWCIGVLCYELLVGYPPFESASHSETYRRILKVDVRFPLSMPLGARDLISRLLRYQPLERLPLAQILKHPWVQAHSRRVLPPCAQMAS

[5] = target: Casein kinase I isoform alpha (Homo sapiens) (UniProt P48729); assay: Inhibition of human CK1a1 assessed as residual activity at 1 uM using KRRRAL[pS]VASLPGL as substrate by [gamma-33P]-ATP assay relative to control
Casein kinase I isoform alpha (Homo sapiens), sequence (P48729 2-337 limits assumed): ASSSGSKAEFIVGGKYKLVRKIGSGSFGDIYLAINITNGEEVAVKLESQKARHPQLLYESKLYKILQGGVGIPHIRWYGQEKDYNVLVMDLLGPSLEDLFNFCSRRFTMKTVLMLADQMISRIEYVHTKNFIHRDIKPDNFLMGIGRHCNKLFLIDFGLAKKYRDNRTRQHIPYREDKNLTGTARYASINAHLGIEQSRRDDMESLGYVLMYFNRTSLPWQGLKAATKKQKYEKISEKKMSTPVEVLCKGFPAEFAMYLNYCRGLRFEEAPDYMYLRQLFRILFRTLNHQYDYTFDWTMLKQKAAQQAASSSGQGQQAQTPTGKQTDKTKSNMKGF

[6] = target: T1, Serine/threonine-protein kinase A-Raf (Homo sapiens) (UniProt P10398); assay: Inhibition of human ARAF assessed as residual activity at 1 uM using MEK1 as substrate by [gamma-33P]-ATP assay relative to control
T1 sequence (whole entry): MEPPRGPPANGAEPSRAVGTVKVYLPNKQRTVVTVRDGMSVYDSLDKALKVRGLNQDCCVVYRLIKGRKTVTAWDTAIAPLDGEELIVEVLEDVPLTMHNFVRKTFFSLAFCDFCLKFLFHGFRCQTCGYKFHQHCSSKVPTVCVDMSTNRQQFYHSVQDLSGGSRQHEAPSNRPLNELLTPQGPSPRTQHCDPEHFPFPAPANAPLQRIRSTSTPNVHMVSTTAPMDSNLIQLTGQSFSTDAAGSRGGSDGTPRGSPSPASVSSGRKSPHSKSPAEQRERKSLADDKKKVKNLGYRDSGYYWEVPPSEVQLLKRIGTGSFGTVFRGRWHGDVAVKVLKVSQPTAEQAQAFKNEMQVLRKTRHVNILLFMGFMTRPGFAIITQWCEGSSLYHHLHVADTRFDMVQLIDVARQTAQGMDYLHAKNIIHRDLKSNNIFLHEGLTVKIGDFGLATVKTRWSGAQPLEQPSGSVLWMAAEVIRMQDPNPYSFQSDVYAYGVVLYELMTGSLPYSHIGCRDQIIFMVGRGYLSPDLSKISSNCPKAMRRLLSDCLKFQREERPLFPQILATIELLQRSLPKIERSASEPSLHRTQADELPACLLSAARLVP

[7] = target: T2, Serine/threonine-protein kinase Chk1 (Homo sapiens) (UniProt O14757); assay: Inhibition of CHK1 phosphorylation at S317 residue in human FOLFOX-resistant HT-29 cells after 24 hrs by Western blot analysis
T2 sequence (whole entry): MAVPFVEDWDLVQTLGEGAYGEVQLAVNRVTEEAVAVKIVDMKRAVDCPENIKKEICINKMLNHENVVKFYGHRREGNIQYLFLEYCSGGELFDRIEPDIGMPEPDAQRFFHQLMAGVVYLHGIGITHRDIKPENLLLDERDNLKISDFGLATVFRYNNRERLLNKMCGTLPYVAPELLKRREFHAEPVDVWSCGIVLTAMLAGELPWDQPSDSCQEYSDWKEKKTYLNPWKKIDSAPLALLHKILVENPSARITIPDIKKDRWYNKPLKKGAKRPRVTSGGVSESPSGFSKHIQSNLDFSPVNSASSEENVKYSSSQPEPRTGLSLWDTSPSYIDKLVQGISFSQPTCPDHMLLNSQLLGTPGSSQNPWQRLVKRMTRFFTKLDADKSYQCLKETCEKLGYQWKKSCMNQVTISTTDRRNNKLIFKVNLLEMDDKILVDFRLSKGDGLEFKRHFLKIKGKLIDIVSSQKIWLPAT

[8] = target: Serine/threonine-protein kinase Nek9 (Homo sapiens) (UniProt Q8TD19); assay: Inhibition of human NEK9 assessed as residual activity at 1 uM using casein as substrate by [gamma-33P]-ATP assay relative to control
Serine/threonine-protein kinase Nek9 (Homo sapiens), sequence (Q8TD19 whole entry): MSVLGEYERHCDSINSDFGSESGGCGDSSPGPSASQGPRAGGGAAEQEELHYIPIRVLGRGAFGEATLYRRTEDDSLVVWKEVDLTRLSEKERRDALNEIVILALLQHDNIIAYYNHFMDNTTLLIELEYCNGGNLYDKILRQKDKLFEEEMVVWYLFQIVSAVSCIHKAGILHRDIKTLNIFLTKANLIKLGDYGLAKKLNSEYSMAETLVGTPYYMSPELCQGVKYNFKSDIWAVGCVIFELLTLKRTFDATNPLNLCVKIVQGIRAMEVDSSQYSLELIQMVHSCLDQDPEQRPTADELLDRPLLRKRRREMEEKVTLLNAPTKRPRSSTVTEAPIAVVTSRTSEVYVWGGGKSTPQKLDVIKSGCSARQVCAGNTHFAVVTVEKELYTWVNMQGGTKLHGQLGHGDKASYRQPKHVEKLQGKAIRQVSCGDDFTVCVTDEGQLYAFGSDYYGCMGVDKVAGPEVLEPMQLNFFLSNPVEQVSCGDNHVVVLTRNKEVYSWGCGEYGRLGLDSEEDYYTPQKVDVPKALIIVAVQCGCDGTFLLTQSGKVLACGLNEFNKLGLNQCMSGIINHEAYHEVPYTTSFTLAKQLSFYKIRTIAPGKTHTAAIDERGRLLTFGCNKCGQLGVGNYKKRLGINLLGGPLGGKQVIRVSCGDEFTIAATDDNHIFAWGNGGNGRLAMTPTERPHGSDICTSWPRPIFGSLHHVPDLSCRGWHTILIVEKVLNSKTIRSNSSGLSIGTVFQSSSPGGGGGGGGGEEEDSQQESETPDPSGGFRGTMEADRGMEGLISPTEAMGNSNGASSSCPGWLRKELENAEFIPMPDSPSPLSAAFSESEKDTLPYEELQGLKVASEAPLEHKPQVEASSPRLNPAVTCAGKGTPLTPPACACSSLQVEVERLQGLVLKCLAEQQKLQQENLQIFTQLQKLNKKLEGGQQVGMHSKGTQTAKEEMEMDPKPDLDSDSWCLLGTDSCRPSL

[9] = target: Serine/threonine-protein kinase tousled-like 2 (Homo sapiens) (UniProt Q86UE8); assay: Inhibition of human TLK2 assessed as residual activity at 1 uM using casein as substrate by [gamma-33P]-ATP assay relative to control
Serine/threonine-protein kinase tousled-like 2 (Homo sapiens), sequence (Q86UE8 whole entry, looked up): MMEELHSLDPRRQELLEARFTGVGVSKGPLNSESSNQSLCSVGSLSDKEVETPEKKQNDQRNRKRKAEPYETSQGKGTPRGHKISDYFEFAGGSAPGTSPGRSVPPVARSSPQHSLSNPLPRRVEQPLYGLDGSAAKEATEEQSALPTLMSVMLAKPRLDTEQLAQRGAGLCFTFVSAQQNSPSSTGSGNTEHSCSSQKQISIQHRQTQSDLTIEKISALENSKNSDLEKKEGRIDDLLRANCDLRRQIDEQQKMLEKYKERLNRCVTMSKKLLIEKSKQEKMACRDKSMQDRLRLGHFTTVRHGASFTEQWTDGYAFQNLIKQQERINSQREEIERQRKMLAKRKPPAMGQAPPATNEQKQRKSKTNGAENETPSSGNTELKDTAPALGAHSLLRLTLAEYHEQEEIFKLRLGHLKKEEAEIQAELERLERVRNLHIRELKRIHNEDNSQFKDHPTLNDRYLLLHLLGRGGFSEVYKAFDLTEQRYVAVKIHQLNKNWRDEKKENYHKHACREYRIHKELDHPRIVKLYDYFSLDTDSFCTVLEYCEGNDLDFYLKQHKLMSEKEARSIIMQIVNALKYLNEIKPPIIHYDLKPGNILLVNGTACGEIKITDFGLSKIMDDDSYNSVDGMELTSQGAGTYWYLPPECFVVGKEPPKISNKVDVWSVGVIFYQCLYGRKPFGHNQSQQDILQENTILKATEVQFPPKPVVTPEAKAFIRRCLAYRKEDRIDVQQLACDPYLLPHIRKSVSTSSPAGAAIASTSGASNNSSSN

[10] = target: Mitogen-activated protein kinase 15 (Homo sapiens) (UniProt Q8TD08); assay: Inhibition of human ERK7 assessed as residual activity at 1 uM using MBP as substrate by [gamma-33P]-ATP assay relative to control
[11] = target: MAP/microtubule affinity-regulating kinase 4 (Homo sapiens) (UniProt Q96L34); assay: Inhibition of human MARK4 assessed as residual activity at 1 uM using KKKVSRSGLYRSPSMPENLNRPR as substrate by [gamma-33P]-ATP assay relative to control
MAP/microtubule affinity-regulating kinase 4 (Homo sapiens), sequence (Q96L34 whole entry, canonical isoform): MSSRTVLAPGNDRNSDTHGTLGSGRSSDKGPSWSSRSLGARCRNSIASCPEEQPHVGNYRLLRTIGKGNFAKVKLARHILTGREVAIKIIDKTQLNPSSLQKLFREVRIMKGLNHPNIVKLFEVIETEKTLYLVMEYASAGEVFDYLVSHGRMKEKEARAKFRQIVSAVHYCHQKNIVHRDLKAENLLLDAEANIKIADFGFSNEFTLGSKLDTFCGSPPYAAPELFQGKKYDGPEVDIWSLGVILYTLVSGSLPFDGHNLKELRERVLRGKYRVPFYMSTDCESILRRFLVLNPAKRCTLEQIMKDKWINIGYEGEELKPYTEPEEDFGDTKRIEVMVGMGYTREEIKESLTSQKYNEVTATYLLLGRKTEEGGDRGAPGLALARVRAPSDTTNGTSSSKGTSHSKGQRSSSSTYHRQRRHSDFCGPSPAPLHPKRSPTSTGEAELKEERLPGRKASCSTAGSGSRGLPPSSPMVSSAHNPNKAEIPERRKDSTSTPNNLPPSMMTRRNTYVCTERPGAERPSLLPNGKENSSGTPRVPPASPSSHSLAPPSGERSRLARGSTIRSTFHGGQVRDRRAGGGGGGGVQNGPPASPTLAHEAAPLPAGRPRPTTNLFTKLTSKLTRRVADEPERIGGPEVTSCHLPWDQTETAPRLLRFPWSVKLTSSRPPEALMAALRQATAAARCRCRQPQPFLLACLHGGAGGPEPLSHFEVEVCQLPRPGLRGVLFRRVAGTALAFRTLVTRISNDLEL

[12] = target: Casein kinase I isoform gamma-1 (Homo sapiens) (UniProt Q9HCP0); assay: Inhibition of human CK1gamma1 assessed as residual activity at 1 uM using KRRRAL[pS]VASLPGL as substrate by [gamma-33P]-ATP assay relative to control
[13] = target: Tyrosine-protein kinase Blk (Homo sapiens) (UniProt P51451); assay: Inhibition of human BLK assessed as residual activity at 1 uM using poly[Glu:Tyr](4:1) as substrate by [gamma-33P]-ATP assay relative to control
[14] = target: PAS domain-containing serine/threonine-protein kinase (Homo sapiens) (UniProt Q96RG2); assay: Inhibition of human PASK assessed as residual activity at 1 uM using KKLNRTLSFAEPG as substrate by [gamma-33P]-ATP assay relative to control
[15] = target: MAP/microtubule affinity-regulating kinase 3 (Homo sapiens) (UniProt P27448); assay: Inhibition of human MARK3 assessed as residual activity at 1 uM using KKKVSRSGLYRSPSMPENLNRPR as substrate by [gamma-33P]-ATP assay relative to control
MAP/microtubule affinity-regulating kinase 3 (Homo sapiens), sequence (P27448 whole entry, looked up): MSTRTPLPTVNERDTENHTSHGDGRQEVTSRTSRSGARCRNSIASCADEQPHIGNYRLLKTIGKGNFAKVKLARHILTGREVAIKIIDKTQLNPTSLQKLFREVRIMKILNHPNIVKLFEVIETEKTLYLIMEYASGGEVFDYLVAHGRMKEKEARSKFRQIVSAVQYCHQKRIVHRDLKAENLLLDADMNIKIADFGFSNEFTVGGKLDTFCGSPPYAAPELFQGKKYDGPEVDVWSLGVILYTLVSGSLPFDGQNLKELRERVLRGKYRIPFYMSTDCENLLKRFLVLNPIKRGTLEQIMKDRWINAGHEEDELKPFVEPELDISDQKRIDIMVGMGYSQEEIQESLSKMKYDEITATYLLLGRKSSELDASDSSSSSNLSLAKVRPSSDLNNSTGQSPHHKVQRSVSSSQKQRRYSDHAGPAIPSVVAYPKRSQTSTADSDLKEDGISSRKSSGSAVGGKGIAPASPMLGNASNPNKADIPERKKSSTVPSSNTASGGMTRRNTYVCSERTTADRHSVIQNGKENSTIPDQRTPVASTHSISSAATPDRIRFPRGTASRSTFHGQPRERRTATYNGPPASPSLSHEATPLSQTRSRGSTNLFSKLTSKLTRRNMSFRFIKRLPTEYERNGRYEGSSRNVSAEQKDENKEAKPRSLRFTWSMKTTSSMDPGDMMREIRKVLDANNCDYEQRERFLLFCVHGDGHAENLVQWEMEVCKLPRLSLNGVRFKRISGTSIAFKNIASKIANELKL

[16] = target: Dual specificity protein kinase CLK2 (Homo sapiens) (UniProt P49760); assay: Inhibition of human CLK2 assessed as residual activity at 1 uM using MBP as substrate by [gamma-33P]-ATP assay relative to control
[17] = target: CDK7/Cyclin H/MNAT1 (Homo sapiens) (UniProt P51946+P50613+P51948); assay: Inhibition of human CDK7/cyclin-H/MNAT1 assessed as residual activity at 1 uM using MBP as substrate by [gamma-33P]-ATP assay relative to control; assay type: protein-complex assay
[18] = target: Dual specificity mitogen-activated protein kinase kinase 2 (Homo sapiens) (UniProt P36507); assay: Inhibition of human MEK2 assessed as residual activity at 1 uM using ERK2 as substrate by [gamma-33P]-ATP assay relative to control

Tyrosine-protein kinase receptor UFO (Homo sapiens), sequence (P30530 whole entry): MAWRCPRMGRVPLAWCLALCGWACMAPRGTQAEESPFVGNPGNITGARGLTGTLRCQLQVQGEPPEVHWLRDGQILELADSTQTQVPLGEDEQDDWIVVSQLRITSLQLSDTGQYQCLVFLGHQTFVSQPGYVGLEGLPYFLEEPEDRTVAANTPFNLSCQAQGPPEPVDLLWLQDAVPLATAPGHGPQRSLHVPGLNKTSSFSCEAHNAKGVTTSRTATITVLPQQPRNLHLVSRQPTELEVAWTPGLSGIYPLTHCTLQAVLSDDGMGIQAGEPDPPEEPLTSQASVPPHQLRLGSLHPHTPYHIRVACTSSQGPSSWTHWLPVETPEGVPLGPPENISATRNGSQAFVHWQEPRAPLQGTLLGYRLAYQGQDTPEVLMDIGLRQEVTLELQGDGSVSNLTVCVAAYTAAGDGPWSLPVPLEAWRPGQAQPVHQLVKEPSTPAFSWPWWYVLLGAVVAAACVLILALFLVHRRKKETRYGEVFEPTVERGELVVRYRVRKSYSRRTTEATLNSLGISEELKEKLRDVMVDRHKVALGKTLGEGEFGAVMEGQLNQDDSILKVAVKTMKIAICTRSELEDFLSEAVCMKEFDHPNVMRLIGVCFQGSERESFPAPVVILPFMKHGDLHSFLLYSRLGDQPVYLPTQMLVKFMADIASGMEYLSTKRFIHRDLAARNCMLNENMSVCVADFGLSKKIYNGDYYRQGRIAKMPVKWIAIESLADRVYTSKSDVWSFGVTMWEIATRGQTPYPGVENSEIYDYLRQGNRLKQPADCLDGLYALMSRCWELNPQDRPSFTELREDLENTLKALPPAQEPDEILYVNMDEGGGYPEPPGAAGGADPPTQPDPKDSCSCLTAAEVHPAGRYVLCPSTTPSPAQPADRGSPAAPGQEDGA

| Structure (SMILES) | Activity [1] | Activity [2] | Activity [3] | Activity [4] | Activity [5] | Activity [6] | inhibition [7] | Activity [8] | Activity [9] | Activity [10] | Activity [11] | Activity [12] | Activity [13] | Activity [14] | Activity [15] | Activity [16] | Activity [17] | Activity [18] |
| --- | --- | --- | --- | --- | --- | --- | --- | --- | --- | --- | --- | --- | --- | --- | --- | --- | --- | --- |
| C(=C\c1ccccc1)/C[N+]12CN3CN(CN(C3)C1)C2 | 94.8 to 94.9% | 107 to 112% | 92.4 to 95.5% | 95.8 to 96.8% | 94.9 to 96.5% | 92 to 97% | Dose-dependent effect | 93.4 to 95.1% | 87.9 to 91.1% | 95 to 96.7% | 93.8 to 96.3% | – | – | – | – | – | – | – |
| ClC/C=C/C[N+]12CN3CN(CN(C3)C1)C2 | 95.7 to 96.5% | – | – | 87.2 to 91.4% | 95.6 to 96.5% | 93.8 to 95.3% | Dose-dependent effect | 93.8 to 95.2% | 91.2 to 91.8% | – | 90.2 to 95.2% | 94.4 to 96.5% | 93.1 to 94.8% | 94.3 to 95.1% | 148 to 153% | 93.9 to 94.5% | 97.4 to 97.9% | 85.2 to 94.1% |
